pIC50: −log10 of the molar value. *1 amine or outer side, *2 acyl side, *3 side chain or, on linkers, in order; H or OH if unused. Where a SMILES comes first, the peptide text is derived from it. [ ]: non-standard residue; d: D form. ξ: configuration not given here. X2 = COC(=O)/C=C/CC[C@H](N[*:1])C(=O)[*:2]; Ile(3ξ) = CCC(C)[C@H](N)C(=O)O
Experiments:
Assay type in all cases: biochemical
FXIII = biological target: T1, FXIII (Homo sapiens, UniProt P00488); assay: Transglutaminase inhibition, IC50 at FXIII; settings: Table 1
T1 sequence (P00488 1-732): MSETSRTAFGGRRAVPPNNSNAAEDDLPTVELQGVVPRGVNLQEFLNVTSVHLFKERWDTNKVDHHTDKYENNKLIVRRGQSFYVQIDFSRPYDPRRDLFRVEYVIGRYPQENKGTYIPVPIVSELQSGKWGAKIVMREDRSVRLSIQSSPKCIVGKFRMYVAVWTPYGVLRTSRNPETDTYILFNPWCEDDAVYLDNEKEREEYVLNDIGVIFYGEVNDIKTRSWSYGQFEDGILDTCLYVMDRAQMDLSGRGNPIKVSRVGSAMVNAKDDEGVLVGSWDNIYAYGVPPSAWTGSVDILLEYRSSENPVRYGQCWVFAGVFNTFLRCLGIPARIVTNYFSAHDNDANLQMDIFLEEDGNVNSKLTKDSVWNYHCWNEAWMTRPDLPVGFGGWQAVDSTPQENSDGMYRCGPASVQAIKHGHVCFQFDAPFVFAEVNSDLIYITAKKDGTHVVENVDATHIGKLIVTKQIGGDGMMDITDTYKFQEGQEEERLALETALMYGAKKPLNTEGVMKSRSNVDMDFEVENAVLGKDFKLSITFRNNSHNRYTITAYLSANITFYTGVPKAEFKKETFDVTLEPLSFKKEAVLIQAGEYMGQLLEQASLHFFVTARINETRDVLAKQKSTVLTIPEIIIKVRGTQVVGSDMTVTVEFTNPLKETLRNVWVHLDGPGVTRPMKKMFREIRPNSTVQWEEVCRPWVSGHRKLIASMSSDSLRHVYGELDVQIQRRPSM

TG1 = biological target: T2, TG1 (Homo sapiens, UniProt P22735); assay: Transglutaminase inhibition, IC50 at TG1; settings: Table 1
T2 sequence (P22735 1-817): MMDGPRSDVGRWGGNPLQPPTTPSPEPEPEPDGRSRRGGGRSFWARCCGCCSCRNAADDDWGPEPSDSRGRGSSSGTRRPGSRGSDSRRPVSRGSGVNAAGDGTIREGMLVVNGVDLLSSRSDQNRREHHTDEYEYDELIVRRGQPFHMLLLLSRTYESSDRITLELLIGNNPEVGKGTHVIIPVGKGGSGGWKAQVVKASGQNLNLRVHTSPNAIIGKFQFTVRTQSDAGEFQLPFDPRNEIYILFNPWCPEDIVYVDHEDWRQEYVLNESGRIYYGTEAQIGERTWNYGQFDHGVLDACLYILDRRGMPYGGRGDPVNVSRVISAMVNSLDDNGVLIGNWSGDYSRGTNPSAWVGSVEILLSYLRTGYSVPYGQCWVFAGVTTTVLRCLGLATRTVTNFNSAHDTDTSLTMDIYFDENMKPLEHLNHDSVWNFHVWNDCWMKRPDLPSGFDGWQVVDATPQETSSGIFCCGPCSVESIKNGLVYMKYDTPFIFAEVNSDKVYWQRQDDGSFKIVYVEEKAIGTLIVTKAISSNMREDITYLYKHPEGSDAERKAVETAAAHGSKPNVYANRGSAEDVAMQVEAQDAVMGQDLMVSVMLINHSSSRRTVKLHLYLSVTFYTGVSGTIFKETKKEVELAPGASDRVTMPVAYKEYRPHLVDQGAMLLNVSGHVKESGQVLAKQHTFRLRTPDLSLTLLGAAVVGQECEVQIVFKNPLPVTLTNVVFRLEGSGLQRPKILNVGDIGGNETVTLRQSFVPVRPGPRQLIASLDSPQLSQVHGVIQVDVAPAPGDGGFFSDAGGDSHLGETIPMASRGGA

[1] = biological target: T3, recombinant human tissue transglutaminase (His6-rh-TG2) (Homo sapiens, UniProt P21980); assay: Inactivation of human tissue transglutaminase, fluorescence assay, IC50; settings: Table 1; 5 min preincubation, 37° C.
T3 sequence (P21980 1-687): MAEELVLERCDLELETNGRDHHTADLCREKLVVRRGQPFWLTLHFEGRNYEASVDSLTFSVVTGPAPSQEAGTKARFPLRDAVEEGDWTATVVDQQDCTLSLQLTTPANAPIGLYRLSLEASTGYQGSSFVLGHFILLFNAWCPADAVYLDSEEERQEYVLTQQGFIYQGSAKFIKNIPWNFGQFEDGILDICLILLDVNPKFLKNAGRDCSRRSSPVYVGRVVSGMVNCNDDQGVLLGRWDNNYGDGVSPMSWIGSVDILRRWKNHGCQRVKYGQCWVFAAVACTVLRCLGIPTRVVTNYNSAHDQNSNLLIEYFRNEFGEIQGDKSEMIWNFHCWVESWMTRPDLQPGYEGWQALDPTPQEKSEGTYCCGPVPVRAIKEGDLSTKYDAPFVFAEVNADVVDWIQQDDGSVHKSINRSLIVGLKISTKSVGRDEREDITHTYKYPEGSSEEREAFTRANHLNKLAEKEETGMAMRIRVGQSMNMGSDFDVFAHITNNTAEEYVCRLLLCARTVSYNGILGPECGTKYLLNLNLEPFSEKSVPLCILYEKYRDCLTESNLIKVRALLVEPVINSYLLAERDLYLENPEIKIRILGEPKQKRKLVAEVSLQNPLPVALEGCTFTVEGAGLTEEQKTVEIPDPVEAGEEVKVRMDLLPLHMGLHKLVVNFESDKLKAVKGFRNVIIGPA
Method: 250 μg of lyophilized his-tagged recombinant human tissue transglutaminase (His6-rh-TG2) are reconstituted by the addition of 150 μl of water (resulting buffer 50 mM of NaH2PO4, 150 mM of NaCl, pH=8).
A 10 mM inhibitor stock solution in DMSO is prepared and diluted with buffer (50 mM of Tris-HCl, 10 mM of CaCl2, 5 mM of DTT, pH=7.5, respectively) to the 20-fold of the concentration desired for the inhibition mixture (at least 1/50 dilution resulting in 2% DMSO concentration).
900 μl of an assay solution composed of 55.56 mM of Tris, 11.11 mM of CaCl2, 0.11% PEG8000, 5.56 mM of DTT, 5.56 mM of glycine methyl ester and 50 μM of Abz-APE(CAD-DNP)QEA-OH, (patent number:), pH=7.5 are placed in a cuvette and brought to a temperature of 37° C. in the measuring cell of a spectrophotometer. 50 μl of the respective inhibitor solution are added to said solution (resulting in a concentration of less than 0.2% of DMSO in the mixture).
7 μl of the transglutaminase solution reconstituted above are diluted with 51 μl of buffer (50 mM of Tris, 100 mM of NaCl, 5 mM of DTT, pH=7.5). 50 μl of said enzyme solution (10 μg His6-rhTG2) are added to the assay solution containing the respective inhibitor concentration. The mixture is incubated for 5 min at 37° C. before the measurement is performed. λexc=313 nm and λem=418 nm, 15 min)
The resulting enzyme activity was measured by analyzing the slope of the straight line obtained by the increase in fluorescence.
DMSO is used instead of inhibitor stock solution in order to determine the non-inhibited enzyme activity. IC50 values are determined by plotting the resulting enzyme activity against the logarithm of the inhibitor concentration. IC50 is defined as the concentration of an inhibitor at which enzyme activity is reduced to 50% after 5 min of preincubation.

pIC50 (FXIII)	pIC50 (TG1)	pIC50 [1]	SMILES
5.70	< 4.30	< 4.30	COC(=O)/C=C/CC[C@H](NC(=O)[C@H](CC(N)=O)NC(C)=O)C(=O)N[C@@H](CCC(=O)O)C(=O)N[C@@H](C)C(=O)N[C@H](C(=O)OC)C(C)C [Compound 7, N^α-acetyl-L-asparaginyl-{[(E)-(L)-6-amino-hept-2-ene-dicarboxylic acid]-1-methanoyl}-L-glutamyl-L-alaninyl-L-valine methyl ester] (Ac-N[X2]EAV-OMe)
6.30	< 4.30	< 4.30	CCC(C)[C@H](NC(=O)[C@@H](NC(=O)[C@H](CC(C)C)NC(=O)[C@H](CO)NC(=O)[C@H](CC/C=C/C(=O)OC)NC(=O)CNC(=O)[C@@H]1CCCN1C(=O)CNC(=O)[C@H](CC(C)C)NC(C)=O)C(C)C)C(=O)NCC(=O)OC (stereo partly drawn) [Compound 8, N^α-acetyl-L-leucinyl-glycinyl-L-prolinyl-glycinyl-{[(E)-(L)-6-amino-hept-2-ene-dicarboxylic acid]-1-ethanoyl}-L-serinyl-L-leucinyl-L-valinyl-L-isoleucinyl-glycine methyl ester] (Ac-LGPG[X2]SLV[Ile(3ξ)]G-OMe)

Source: US8471063B2, “Michael systems as transglutaminase inhibitors” (Zedira GmbH, priority 2006, dated 2013)
